Source: patent US7884242B2, “N-heterocyclylphthaldiamides as insecticides” (Bayer CropScience AG, priority 2004, dated 2011)

Tests used:
[1] = log P determination by HPLC on reverse phase column, pH 2.3; assay type: physicochemical; conditions: reverse phase HPLC column (C 18), reverse phase column (C 18), pH 2.3, 43° C.
Method: The determination of the log P values given in the above table and preparation examples is carried out in accordance with EEC directive 79/831 Annex V.A8 by HPLC (High Performance Liquid Chromatography) on a reverse phase column (C 18). Temperature: 43° C. The determination is carried out under acidic conditions at pH 2.3 with 0.1% aqueous phosphoric acid and acetonitrile as eluents; linear gradient of 10% acetonitrile to 95% acetonitrile. Calibration was is carried out with unbranched alkan-2-ones (with 3 to 16 carbon atoms) of known log P values (Determination of log P values by the retention times by linear interpolation between two sequential alkanones).

[2] = test system: green peach aphid (Myzus persicae); experiment: Myzus test (spray treatment); assay type: in vivo; conditions: for pest or weed control at 100 g/ha: Myzus persicae, in Brassica oleracea, 120 h, spray treatment, China cabbage slices, after 5 d, read-out: Death rate in % after 5d; for activity in Myzus test (spray treatment): statement in words
Method: [table] For the preparation of a suitable active compound formulation 1 part by weight of the active compound is mixed with the above amounts of solvent and emulsifier and the concentrate is diluted to the desired concentration with water containing emulsifier. China cabbage slices (Brassica pekinensis) that are infected with all stages of the green peach aphid (Myzus persicae) are sprayed with an active compound preparation at the desired concentration. After the desired time the activity in % is determined. Here 100% means that all aphids were killed; 0% means that no aphids were killed.

[3] = test system: green peach aphid (Myzus persicae); experiment: Myzus persicae test; hydroponic treatment; assay type: in vivo; conditions: for Death rate in % after 6d: 20 ppm in water, hydroponic treatment, pea plant; for activity in Myzus persicae test; hydroponic treatment: statement in words
Method: [table] For the preparation of a suitable active compound formulation 1 part by weight of the active compound is mixed with the above amounts of solvent and emulsifier and the concentrate is diluted to the desired concentration with water. The active compound preparation is mixed with water. The concentration given refers to the amount of active compound per unit volume of water (mg/l=ppm). The treated water is placed in a vessel with a pea plant (Pisum sativum) which is then infection with the green peach aphid (Myzus persicae) is carried out. After the desired time the death rate in % is determined. Here 100% means that all aphids were killed, 0% means that no aphids were killed.

[4] = test system: larvae of the mustard leaf beetle (Phaedon cochleariae); experiment: Phaedon test (spray treatment); assay type: in vivo; conditions: for pest or weed control at 4 g/ha / pest or weed control at 100 g/ha: Phaedon cochleariae, 168 h, spray treatment, China cabbage slices, after 7 d, read-out: Death rate in % after 7d; for activity in Phaedon test (spray treatment): statement in words
Method: (§1) [table] For the preparation of a suitable active compound formulation 1 part by weight of the active compound is mixed with the above amounts of solvent and emulsifier and the concentrate is diluted to the desired concentration with water containing emulsifier. China cabbage slices (Brassica pekinensis) are sprayed with an active compound preparation of the desired composition and after drying infected with larvae of the mustard leaf beetle (Phaedon cochleariae). After the desired time the activity in % is determined. Here 100% means that all beetle larvae were killed; 0% means that no beetle larvae were killed.

[5] = test system: caterpillars of the fall army worm (Spodoptera frugiperda); experiment: Spodoptera frugiperda test (spray treatment); assay type: in vivo; conditions: for pest or weed control at 4 g/ha: Spodoptera frugiperda, 168 h, spray treatment, maize leaf sections, after 7 d, read-out: Death rate in % after 7d; for activity in Spodoptera frugiperda test (spray treatment): statement in words
Method: as §1, with “Maize leaf sections (Zea mays)” for “China cabbage slices (Brassica pekinensis)”, “concentration” for “composition”, “caterpillars” for “larvae”, “fall army worm (Spodoptera frugiperda).” for “mustard leaf beetle (Phaedon cochleariae).”, “caterpillars” for “beetle larvae”

[6] = test system: caterpillars of the diamond back moth (Plutella xylostella); experiment: Plutella test; assay type: in vivo; conditions: for Death rate in % after 7d: cabbage leaves dipped; for activity in Plutella test: statement in words
Method: [table] For the preparation of a suitable active compound formulation 1 part by weight of the active compound is mixed with the above amounts of solvent and emulsifier and the concentrate is diluted to the desired concentration with water containing emulsifier. Cabbage leaves (Brassica oleracea) are treated by dipping into the active compound preparation of the desired concentration and infected with caterpillars of the diamond back moth (Plutella xylostella) while the leaves were still wet. After the desired time the death rate is determined as %. Here 100% means that all caterpillars were killed; 0% means no caterpillars were killed.

[7] = test system: caterpillars of the beet army worm (Spodoptera exigua); experiment: Spodoptera exigua test (resistant strain); assay type: in vivo; conditions: for Death rate in % after 7d: resistant strain, cabbage leaves dipped; for activity in Spodoptera exigua test (resistant strain): statement in words
Method: [table] For the preparation of a suitable active compound formulation 1 part by weight of the active compound is mixed with the above amounts of solvent and emulsifier and the concentrate is diluted to the desired concentration with water containing emulsifier. Cabbage leaves (Brassica oleracea) are treated by dipping in the active compound preparation at the desired concentration and infected with caterpillars of the beet army worm (Spodoptera exigua) while the leaves are still moist. After the desired time the death rate in % is determined. Here 100% means that all caterpillars were killed; 0% means that no caterpillars were killed.

[8] = test system: caterpillars of the cotton boll worm (Heliothis armigera); experiment: Heliothis armigera test; assay type: in vivo
Method: [table] For the preparation of a suitable active compound formulation 1 part by weight of the active compound is mixed with the above amounts of solvent and emulsifier and the concentrate is diluted to the desired concentration with water containing emulsifier. Soy bean leaves (Glycine max.) are treated by dipping into the active compound preparation at the desired concentration and infected with the caterpillars of the cotton boll worm (Heliothis armigera), while the leaves are still wet. After the desired time the death rate in % is determined. Here 100% means that all caterpillars were killed; 0% means that no caterpillars were killed.

[9] = log P determination with LC-MS under acidic conditions, pH 2.7; assay type: physicochemical; conditions: reverse phase HPLC column (C 18)
Method: The determination of the log P values given in the above table and preparation examples is carried out in accordance with EEC directive 79/831 Annex V.A8 by HPLC (High Performance Liquid Chromatography) on a reverse phase column (C 18). Temperature: 43° C. The determination with LC-MS under acidic conditions is carried out at pH 2.7 with 0.1% aqueous formic acid and acetonitrile (contains 01% formic acid) as eluents; linear gradient from 10% acetonitrile to 95% acetonitrile. Calibration was is carried out with unbranched alkan-2-ones (with 3 to 16 carbon atoms) of known log P values (Determination of log P values by the retention times by linear interpolation between two sequential alkanones).

[10] = test system: two-spotted spider mite (Tetranychus urticae); experiment: Tetranychus Test OP resistant; assay type: in vivo
Method: [table] For the preparation of a suitable active compound formulation 1 part by weight of the active compound is mixed with the above amounts of solvent and emulsifier and the concentrate is diluted to the desired concentration with water containing emulsifier. Bean leaf slices (Phaseolus vulgaris) that are infested by all stages of the two-spotted spider mite (Tetranychus urticae) are sprayed with an active substance preparation at the desired concentration. After the desired time the action in % is determined. Here 100% means that all spider mites were killed; 0% means that no spider mites were killed.

[11] = test system: cotton aphid (Aphis gossypii); experiment: Aphis gossypii test; assay type: in vivo
Method: [table] For the preparation of a suitable active compound formulation 1 part by weight of the active compound is mixed with the above amounts of solvent and emulsifier and the concentrate is diluted to the desired concentration with water containing emulsifier. Cotton leaves (Gossypium hirsutum) heavily infested with the cotton aphid (Aphis gossypii) are treated by immersion in the active compound preparation at the desired concentration. After the desired time the death rate in % is determined. Here 100% means that all aphids were killed; 0% means that no aphids were killed.

Row | Structure (SMILES) | chromatographic logP [1] | chromatographic logP [9] | pest or weed control at 100 g/ha [2] | activity in Myzus test (spray treatment) [2] | activity in Phaedon test (spray treatment) [4] | pest or weed control at 4 g/ha [5] | activity in Spodoptera frugiperda test (spray treatment) [5] | further results
1 | Cc1nc(Cn2nc(C(F)(F)F)nc2C(F)(F)F)ncc1NC(=O)c1cccc(I)c1C(=O)N[C@@H](C)CS(C)(=O)=O [Example 41] | 2.54 | – | 90% | good activity | – | – | – | Death rate in % after 6d [3]: 95%; activity in Myzus persicae test; hydroponic treatment [3]: good activity
2 | Cc1sc(CO)cc1[N+](=O)[O-] [(5-methyl-4-nitro-2-thienyl)methanol] | – | 1.4 | – | – | – | – | – | –
3 | Cc1nc(Cn2nc(C(F)(F)F)cc2C(F)(F)F)ccc1NC(=O)c1cccc(Cl)c1C(=O)N[C@@H](C)CS(C)(=O)=O [Example 9] | 2.69 | – | 100% | good activity | good activity | 100% | good activity | pest or weed control at 100 g/ha [4]: 100%; Death rate in % after 7d ([7]; 0.8 ppm): 80%; activity in Spodoptera exigua test (resistant strain) [7]: good activity
4 | CSC[C@H](C)NC(=O)c1c(Cl)cccc1C(=O)Nc1cnc(Cn2cc(C(F)(F)C(F)(F)F)c(C(F)(F)C(F)(F)F)n2)nc1C [Example 64] | 4.11 | – | 100% | good activity | good activity | 100% | good activity | pest or weed control at 4 g/ha [4]: 100%; Death rate in % after 5d ([10]; 100 g/ha, OP resistant, bean leaf slices sprayed, after 5 d): 100%; activity in Tetranychus Test OP resistant ([10]; statement in words): good activity
5 | Cc1nc(Cn2nc(C(F)(F)F)nc2C(F)(F)F)ccc1NC(=O)c1cccc(Cl)c1C(=O)N[C@@H](C)CS(C)(=O)=O [Example 16] | 2.56 | – | 100% | good activity | good activity | 100% | good activity | pest or weed control at 100 g/ha [4]: 100%; Death rate in % after 7d ([6]; 0.16 ppm): 100%; activity in Plutella test [6]: good activity; Death rate in % after 7d ([11]; 100 ppm, cotton leaves immersed, after 7 d): 80%; activity in Aphis gossypii test ([11]; statement in words): good activity
6 | Cc1nc(Cn2nc(C(F)(F)F)cc2C(F)(F)F)ncc1NC(=O)c1cccc(I)c1C(=O)N[C@@H](C)C[S+](C)[O-] (some centres unmarked) [Example 24] | 2.27 | – | 100% | good activity | – | 83% | good activity | Death rate in % after 6d [3]: 95%; activity in Myzus persicae test; hydroponic treatment [3]: good activity

Further lines, with some results ahead:

Row | chromatographic logP [1] | chromatographic logP [9] | Structure (SMILES) | pest or weed control at 100 g/ha [2] | activity in Myzus test (spray treatment) [2] | activity in Phaedon test (spray treatment) [4] | pest or weed control at 4 g/ha [5] | activity in Spodoptera frugiperda test (spray treatment) [5] | further results
7 | 3.29 | – | Cc1nc(Cn2cc(C(F)(F)C(F)(F)F)c(C(F)(F)C(F)(F)F)n2)ncc1NC(=O)c1cccc(Cl)c1C(=O)N[C@@H](C)CS(C)(=O)=O [Example 66] | 100% | good activity | good activity | 100% | good activity | pest or weed control at 4 g/ha [4]: 100%; Death rate in % after 7d ([6]; 0.8 ppm): 100%; activity in Plutella test [6]: good activity; Death rate in % after 7d ([7]; 4 ppm): 100%; activity in Spodoptera exigua test (resistant strain) [7]: good activity; Death rate in % after 7d ([8]; 0.8 ppm, soy bean leaves dipped, after 7 d): 80%; activity in Heliothis armigera test ([8]; statement in words): good activity
8 | – | 3.8 | Cc1nc(Cn2nc(C(F)(F)F)cc2C(F)(F)F)ccc1[N+](=O)[O-] [IV-1, 6-{[3,5-bis(trifluoromethyl)-1H-pyrazol-1-yl]methyl}-2-methyl-3-nitropyridine] | – | – | – | – | – | –
9 | – | 2.2 | Cc1sc(Cn2nc(C(F)(F)F)nc2C(F)(F)F)cc1N [IIIb-1, 5-{[3,5-bis(trifluoromethyl)-1H-1,2,4-triazol-1-yl]methyl}-2-methylthiophene-3-amine] | – | – | – | – | – | –
10 | – | 1.9 | Cc1nc(Cn2nc(C(F)(F)F)cc2C(F)(F)F)ccc1N [IIIa-1, 6-{[3,5-bis(trifluoromethyl)-1H-pyrazol-1-yl]methyl}-2-methylpyridin-3-amine] | – | – | – | – | – | –
11 | – | 2.2 | Cc1nc(CBr)ccc1[N+](=O)[O-] [VII-1, 6-(bromomethyl)-2-methyl-3-nitropyridine] | – | – | – | – | – | –
